# From patent US20230406803A1, “TROPOLONE DERIVATIVES AND TAUTOMERS THEREOF FOR IRON REGULATION IN ANIMALS” (Kinesid Therapeutics, Inc, priority 2020, published 2023)
# Legend:
# [1] = Ligand facilitated Fe(III) efflux from liposomes; format: biochemical; parameters: unit not given here; settings: efflux rate k at 10 μM ligand concentration; ferrozine absorbance 562 nm, 120 min kinetic read
# Description: Assay 1: Ligand Facilitated Fe(III) Efflux from Liposomes
# Preparation of POPC (1 palmitoyl-2-oleoyl-sn-glycero-3 phosphocholine): Cholesterol Liposomes
# A 1M buffer solution of MES and Tris was prepared by dissolving 121.14 grams of Tris base and 213.25 grams of MES hydrate in 500 mL of MilliQ water and adjusted to pH7.0 using an […] HCl solution before bringing the total volume of the solution to 1 L. A 500 mM solution of FeCl3 was prepared by dissolving 0.811 grams of anhydrous FeCl3 in 10 mL of a 0.1M H2SO4 aqueous solution. Inside buffer is prepared in a 50 mL falcon tube, which was added with 25 mL of MilliQ water, 1.61 g of sodium citrate, 1.5 mL of the above FeCl3 solution, and 2.5 mL of the 1M MES/Tris HCl buffer (pH=7.0), and finally additional MilliQ H2O to bring to a 50 mL final volume.
# Lipid solution is prepared by dissolving 206.9 mg of POPC (1-palmitoyl-2-oleoyl-sn-glycero-3-phosphocholine) and 8.6 mg of cholesterol in 10 mL of ethanol.
# The lipids solution and the inside buffer solution are independently loaded into 10 mL luer lock syringes for loading into a virgin cartridge on a Precision Nanosystems NanoAssembler to prepare unilamaller liposomes with the following parameters: 7.5 mL total volume, 1.5:1 mixing ratio of inside buffer:lipids solution, 8 mL/min flow rate, ambient temperature, 0.35 mL start waste, and 0.05 mL of end waste. 7.5 mL of liposomes is harvested for purification on a 6-inch long, 1-inch diameter Sephadex G-50 column wetted in 600 mM sodium ascorbate and 50 mM MES/Tris HCl pH 7.0 buffer. This buffer also serves as the column running buffer. The crude liposome solution is carefully loaded with minimal volume of running buffer above the top of the Sphadex, allowed to enter the matrix, and the column is run with the continued addition of running buffer. The eluting liposomes, observed as a milky and turbid solution, are collected until free iron begins to elute (observed as a deep purple color) and the fractions are pooled for phosphorus quantitation.
# Determination of Phosphorus Content:
# Phosphorus content of eluted liposomes was determined by the process outlined below. 10 μL of liposome elution and a running buffer blank are added to a 5 mL glass vial containing 450 μL of a 8.9 M aqueous H2SO4 solution, the mixture is heated to 225° C. for 25 minutes in an aluminum heat block to hydrolyze POPC and cooled for 5 minutes. 200 μL of a 30% hydrogen peroxide aqueous solution is added to each vial and heated to 225° C. for 25 minutes. After cooling, the phosphorus content was determined using an Abcam Phosphate Assay kit, with buffer subtracted phosphorus levels determined against a standard curve of phosphate included in the kit. Liposomes were diluted to 1 mM phosphate in Running Buffer for use in assays after accounting for dilutions made during phospholipid digestion.
# Determination of the Iron Transporting Rate Constant of the Ligands:
# Determination of the rate at which a small molecule ligand liberates (transport) Ferric iron from liposomes is performed in clear bottom black 384-well plates on a Spectramax i3x set to read the absorbance at 562 nm in the kinetic mode every 60 seconds for 120 minutes. 1 μL of serially diluted DMSO stock solution of a small molecule ligand is added to wells in triplicate to give the final concentrations of 40, 20, 10, 5, 2.5, and 1.25 uM of the ligand at 80 μL final volume, followed by addition of 1 μL of 100 mM Ferrozine in water to give a final concentration of 1 mM ferrozine. 78 μL of liposomes diluted to 1 mM phosphorus in running buffer is added to wells as quickly as possible (using a digital repeater multichannel pipette) with the kinetic read initiated as rapidly as possible after addition of liposomes to all wells. Typically, eight compounds at six concentrations are tested in triplicate simultaneously. […]
# [2] = tested on: DMT1-deficient Caco-2 cells; assay: shDMT1-Caco2 55Fe transport assay; format: cell-based; settings: Caco-2
# Description: Assay 2: shDMT1-Caco2 ^55Fe Transport Assay to Assess Ligand Ability in Transporting Fe (III)
# Cells: DMT1-deficient Caco-2 cells (alias: “shDMT1,” or “4A” cells) were from Grillo et al. Science, 2017, and were cryopreserved in liquid nitrogen prior to use.
# Reagents and supplies: ^55FeCl3 was obtained from PerkinElmer (Boston, MA). Iron(III) chloride (FeCl3) hexahydrate was obtained from Sigma. Dulbecco's Modified Eagle Medium (DMEM), fetal bovine serum (FBS), L-glutamine, MEM nonessential amino acids, penicillin-streptomycin, G418, formic acid, methanol, high-purity water, ammonium formate, dimethyl sulfoxide (DMSO) were purchased from Fisher Scientific. Propranolol, atenolol and carbutamide were obtained from Sigma-Aldrich Chemical Company (St Louis, MO). Scintillation cocktail was obtained from Research Product International Co. (Mount Prospect, IL). Stericup filter system (PES membrane, 0.22 um pore size) was purchased from Fisher Scientific. Corning item #3378 24-well transwell insert plates.
# Test articles: known compounds hinokitiol and deferiprone were purchased from Sigma. They are tested side by side with the small molecule ligands disclosed in this application. DMSO stocks (10 mM, which is 1,000× of the 10 μM dose level) of hinokitiol or test articles were prepared. A stock solution of 25 mM deferiprone in DMSO was prepared. The DMSO stock solutions were stored at −20° C. or below when not in use.
# The growth medium was prepared according to the following table
# Apical media (serum free DMEM, 10 mM MES, pH 6.5) was prepared. Apical master mix media was prepared fresh with the addition of 200 nM ^55Fe before each experiment. For the negative control propranolol and atenolol wells, 200 nM of non-radioactive iron was used.
# The basolateral media was serum-free DMEM, 10 mM HEPES, 2% bovine serum albumin (BSA), pH 7.4.
# For each experiment, cells were seeded into the 24-well transwell plates (0.5 mL of 50,000 cells/mL) with growth media. The basolateral companion plate was loaded with 1 mL of growth media. After 12-24 hr, both the apical and basolateral chamber were replaced with growth media. The apical media was changed 3× per week for 21-28 days, including a media change exactly 48 hr before the assay date.
# On the assay day, the TEER values were measured and the average TEER value was obtained. Individual wells with TEER value >35% lower than the average of all wells were excluded. For the qualified wells, the apical layer (twice) and basolaterial (once) chambers were washed with PBS. The basolateral companion plate was then filled with 1 mL of basolateral media. Via addition down the side-wall of the apical well, 300 μL per well of the apical assay master mix, with the indicated dose level of test article, was added. Each dose was tested in triplicate. The plates were incubated (5% CO2 and 90% humidity at 37° C.) for the indicated timepoints. At each indicated timepoint, the basolateral supernatant was gently mixed via pipetting, and 200 μL of the basolateral supernatant was transferred to scintillation vials. To each scintillation counting vial, 5 mL of scintillation cocktail fluid was added. For each scintillation vial, the radioactivity (CPM) was determined with liquid scintillation counter LS6500. The counting time per vial was 5 min.
# All raw CPM values are divided by the average value of blank DMSO solution to give a fold of change above the DMSO value. The mean and standard deviation of each compound at each concentration level and at each time point measured was calculated to give the fold change (fc) value. For rank order compounds, the fc value of a ligand at 4 h time point is further divided by the fold change (fc) value of hinokitiol (a positive control compound) at an equimolar concentration to arrive at the FC (normalized fold of change) value. Data reported in Tables 1 and 2 is 4 hr time point FC=fc-ligand @ 3 uM/fc-hino @ 3 μM, and FC hino=1.
SMILES,"Caco2 shDMT1 transport FC @ 3 μM, 4 h [2]",Liposome Fe transport kefflux at 10 μM [1]
Cc1ccc(F)c(=O)c([O-])c1.[Na+],0.01-0.5,0.1-5
Cc1c(C2CC2)cccc(=O)c1[O-].[Na+],0.5-1,0.1-5
"Cc1c(O)c(=O)ccn1C [deferiprone, reference compound]",0.02-0.03,0
CC1(C)CCC(c2cccc(=O)c(O)c2)C1 (centres unmarked),0.01-0.5,5-7.5
O=c1c(F)cccc(C2CCOCC2)c1O [drawing 211],0.01-0.5,5-7.5
O=c1ccccc(C2CCOCC2)c1O [drawing 183],1-5,0.1-5
Cc1ccc(C2CC2)cc(O)c1=O,0.5-1,7.5-10
CCc1cccc(F)c(=O)c1O,0.01-0.5,10-25
Cc1ccc(C)c(=O)c(O)c1,1-5,0.1-5
CCc1ccc(O)c(=O)c(F)c1,0.01-0.5,0.1-5
O=c1ccccc(OCC2CC2)c1O [drawing 260],1-5,10-25
CC(C)c1ccc(F)c(=O)c(O)c1F,0.01-0.5,7.5-10
O=c1cccc(C2CC3CCC(C2)O3)cc1O (centres unmarked) [drawing 181],0.01-0.5,7.5-10
CC(C)c1ccc(C(F)(F)F)c(=O)c(O)c1,0.01-0.5,5-7.5
CCc1ccc(O)c(=O)c(C)c1,1-5,5-7.5
O=c1cccc(OC2COC2)cc1O,0.01-0.5,0.1-5

# Now from value to compound, other results behind:
"Caco2 shDMT1 transport FC @ 3 μM, 4 h [2]",SMILES,Liposome Fe transport kefflux at 10 μM [1]
1-5,O=c1ccccc(C2CCCCO2)c1O (centres unmarked),0.1-5
1-5,O=c1cccc(OC2CC2)cc1O,5-7.5
0.01-0.5,O=c1ccc(C2CCC2)ccc1O,10-25
0.01-0.5,O=c1ccc(C2CCCO2)ccc1O (centres unmarked),7.5-10
0.01-0.5,O=c1ccccc(C2CCCO2)c1S (centres unmarked),7.5-10
0.01-0.5,O=c1c(F)cccc(C2CCCO2)c1O (centres unmarked),5-7.5
0.01-0.5,O=c1cccc(C2CCOCC2)cc1O,10-25
0.01-0.5,O=c1ccc(C2CCOCC2)ccc1O,0.1-5
0.01-0.5,O=c1ccc([C@@H]2CCC[C@H]2O)ccc1O,7.5-10
1-5,O=c1ccc(OC2CCC2)ccc1O,10-25
0.01-0.5,O=c1ccc(C2CC3CCC(C2)O3)ccc1O (centres unmarked),0.1-5
1-5,Cc1cc(C2CC2)ccc(O)c1=O,0.1-5
